This experiment concerns MCh-induced bronchoconstriction. Nature of the experiment: Einthoven assay: bronchoprotection against methacholine (MCh)-induced bronchoconstriction. It counts as in vivo. Conditions: for inhibition in vivo at 0.1 mg: inhaled or nasal. How it is done:
This assay measures the ability of a test compound to provide bronchoprotection against methacholine (MCh)-induced bronchoconstriction in a rat. Male Sprague-Dawley rats (Harlan, Indianapolis, Ind.), weighing between 200 g and 350 g, were used for all studies. Test compound or vehicle (sterile deionized water) were dosed by inhalation (1H) over a 10 min period in a pie shaped inhalation chamber (R+S Molds, San Carlos, Calif.) using 5 mL of dosing solution. […] Rats were dosed with 100 μg of test compound unless otherwise indicated. At predetermined time points, rats were anesthetized with an intraperitoneal (IP) injection of 120 mg/kg inactin (thiobutabarbital). A supplemental dose (40 mg/kg, IP) was administered if the animal responded to physical stimuli (e.g. toe pinch). The surgical site was shaved and a 1-2 cm midline incision of the ventral aspect of the neck was made. The jugular vein was isolated and cannulated with a saline-filled polyethylene catheter (PE-50) to allow IV infusion of MCh. Trachea was dissected free and cannulated with a 14G needle (#NE-014, Small Parts, Miami Lakes, Fla.). After placement of the tracheal cannula, each rat was ventilated using a respirator (Model 683, Harvard Apparatus, Inc., MA) set at a stroke volume of 1 mL/100 g body weight (but not exceeding 2.5 mL volume) and a rate of 90 strokes per minute. A T-connector was placed along the respirator expiratory tubing to allow for measurement of changes in ventilation pressure (VP) using a Biopac transducer that was connected to a Biopac […]) pre-amplifier. Body temperature was maintained at 37° C. using a heating pad. Changes in VP were recorded using the Acknowledge Data Collection Software (Santa Barbara, Calif.). Baseline values were collected for at least 2.5 min. Rats were then challenged with non-cumulative intravenous (IV) infusions of 40 and 80 μg/kg MCh. MCh was infused intravenously for 2.5 minutes from a syringe pump (sp210iw, World Precision Instruments, Inc., Sarasota, Fla.) at a rate of 2 mL/kg/min, with a 2 minute interval between the two doses of MCh. Changes in ventilation pressure (cm H2O) in treated animals are expressed as % inhibition of MCh response relative to control animals. Other bronchoconstrictors, such as histamine and acetylcholine, can be used in place of MCh in this assay. Additionally, guinea pigs can be used instead of rats. […] Inhibition greater than or equal to 30 percent at 24 h is indicative of a long duration of action.

Where [1] appears, read: Rattus norvegicus, 24 h, read-out: Broncho. at 24 h, Bronchoprotective effect present at 24 h, 100 μg by inhalation, 24 h after administration.
[2] abbreviates: rat, 100 μg by inhalation, 24 h after administration.

The results in this text go back to patent publication US8816088B2 (Theravance, Inc., priority 2009, dated 2014).

Each structure is given as a SMILES string. Structures can show the parent of a compound that is named as a salt. Where two headings read alike, the source gives them in different places.

Regarding `Cc1cc(CNC[C@H](O)c2ccc(O)c3[nH]c(=O)ccc23)ccc1NC(=O)c1cccc(N(C)C(=O)CCN2CCC(OC(=O)Nc3ccccc3-c3ccccc3)CC2)c1` [Compound I-27, Biphenyl-2-ylcarbamic acid 1-(2-{[3-(4-{[(R)-2-hydroxy-2-(8-hydroxy-2-oxo-1,2-dihydroquinolin-5-yl)-ethylamino]methyl}-2-methylphenylcarbamoyl)phenyl]-methylcarbamoyl}ethyl)piperidin-4-yl ester ditrifluoroacetic acid salt], the inhibition in vivo at 0.1 mg under setting [1] was below 30%. With `CN(C(=O)CCN1CCC(OC(=O)Nc2ccccc2-c2ccccc2)CC1)c1ccc(CC(=O)NCc2ccc(CCNC[C@H](O)c3ccc(O)c4[nH]c(=O)ccc34)cc2)cc1` [Compound I-64, Biphenyl-2-ylcarbamic acid 1-[2-({4-[(4-{2-[(R)-2-hydroxy-2-(8-hydroxy-2-oxo-1,2-dihydroquinolin-5-yl)-ethylamino]ethyl}benzylcarbamoyl)methyl]phenyl}-methylcarbamoyl)ethyl]piperidin-4-yl ester ditrifluoroacetic acid salt], the inhibition in vivo at 0.1 mg under setting [1] is below 30%. Same read-out and setting: to `C[C@H](Cc1cccc(CC(=O)NCCCN(C)C(=O)CCN2CCC(OC(=O)Nc3ccccc3-c3ccccc3)CC2)c1)NC[C@H](O)c1ccc(O)c2[nH]c(=O)ccc12` [Compound I-12, Biphenyl-2-ylcarbamic acid 1-[2-({3-[2-(3-{(R)-2-[(R)-2-hydroxy-2-(8-hydroxy-2-oxo-1,2-dihydroquinolin-5-yl)ethylamino]propyl}phenyl)acetylamino]propyl}-methylcarbamoyl)ethyl]piperidin-4-yl ester ditrifluoroacetic acid salt] belongs below 30%. On to `CC(Cc1cccc(CCNC(=O)Cc2ccc(N(C)C(=O)CCN3CCC(OC(=O)Nc4ccccc4-c4ccccc4)CC3)cc2)c1)NC[C@H](O)c1ccc(O)c2[nH]c(=O)ccc12` (stereo partly shown) [Compound I-87], for which the “Broncho. at 24 h; Bronchoprotective effect present at 24 h” value under setting [2] is on record as “Yes (Bronchoprotective effect present at 24 h, e.g., ≧30% inhibition of the MCh response at 24 h in the rat Einthoven assay (100 μg))”.

As to `Cc1ccc(C(=O)Nc2ccc(CC(C)NC[C@H](O)c3ccc(O)c4[nH]c(=O)ccc34)cc2)cc1N(C)C(=O)CCN1CCC(OC(=O)Nc2ccccc2-c2ccccc2)CC1` (stereo partly drawn) [Compound I-41, Biphenyl-2-ylcarbamic acid 1-(2-{[5-(4-{2-[(R)-2-hydroxy-2-(8-hydroxy-2-oxo-1,2-dihydroquinolin-5-yl)-ethylamino]propyl}phenylcarbamoyl)-2-methylphenyl]-methylcarbamoyl}ethyl)piperidin-4-yl ester], under “rat, 100 μg by inhalation, 24 h after administration, read-out: Broncho. at 24 h, Bronchoprotective effect present at 24 h”, the inhibition in vivo at 0.1 mg is below 30%.

Take `Cc1ccc(C(=O)NCc2cccc(CC(C)NC[C@H](O)c3ccc(O)c4[nH]c(=O)ccc34)c2)cc1N(C)C(=O)CCN1CCC(OC(=O)Nc2ccccc2-c2ccccc2)CC1` (stereo partly drawn) [Compound I-45, Biphenyl-2-ylcarbamic acid 1-(2-{[5-(3-{2-[(R)-2-hydroxy-2-(8-hydroxy-2-oxo-1,2-dihydroquinolin-5-yl)-ethylamino]propyl}benzylcarbamoyl)-2-methylphenyl]-methylcarbamoyl}ethyl)piperidin-4-yl ester ditrifluoroacetic acid salt]: the inhibition in vivo at 0.1 mg under setting [1] was below 30%. As to `Cc1ccc(C(=O)Nc2ccc(CCNC[C@H](O)c3ccc(O)c4[nH]c(=O)ccc34)cc2)cc1N(C)C(=O)CCN1CCC(OC(=O)Nc2ccccc2-c2ccccc2)CC1` [Compound I-35], under setting [2], the “Broncho. at 24 h; Bronchoprotective effect present at 24 h” value is listed as “Yes (Bronchoprotective effect present at 24 h, e.g., ≧30% inhibition of the MCh response at 24 h in the rat Einthoven assay (100 μg))”.
